The data set in a line: Stability test of sample solutions under exposure to fluorescent light (HPLC peak area). The format is physicochemical. The conditions noted are these: acetonitrile sample solution (HαS 0.26 mg/mL, compound 5 0.49 mg/mL), room temperature, 24 hours under fluorescent light. The procedure: (HPLC Analysis Conditions)
Column: TSK-GEL 80TS (φ4.6 mm×150 mm) (Tosoh, Japan); column temperature: 40° C.; flow rate: 1.0 mL/min; measurement wavelength: 200 to 400 nm; mobile phase: Liquid A acetonitrile, Liquid B 0.1% Na2S2O3 aqueous solution (Liquid A: 40%, Liquid B: 60%); and measurement mode: isocratic mode.
HαS (27.6 mg) and the compound 5 (50.4 mg) were diluted to 100 mL with anhydrous acetonitrile (HPLC grade) to prepare 0.26 mg/mL and 0.49 mg/mL sample solutions. The sample solutions, dispensed in 50 mL aliquots, were allowed to stand at room temperature for 24 hours under exposure to fluorescent light. Quantitative analysis was performed under the above HPLC analysis conditions to measure peak area values of the HαS and the diene iron complex compound (compound 5).

Take `C/C=C/C=C/C=C\CC/C=C/C(=O)NCC(C)(C)O` [HαS, (2E,6Z,8E,10E)-N-(2-hydroxy-2-methylpropyl)dodeca-2,6,8,10-tetraenamide]: the “peak area value (content) relative to initial level after light exposure” value is “approximately 10%”. Consider “tricarbonyl[(8,9,10,11-η)-(2E,6Z,8E,10E)-N-(2-hydroxy-2-methylpropyl)dodeca-2,6,8,10-tetraenamide]iron [compound 5]”, for which the “peak area value (content) relative to initial level after light exposure” value was “approximately 80%”.

Values taken from US8871962B2, “Method for producing sanshool” (Tsumura & Co., priority 2010, dated 2014).
